Each structure is given as a SMILES string.

Experimental findings from patent US20140206678A1, “INHIBITORS OF MTOR KINASE AS ANTI -VIRAL AGENT” (KADMON CORPORATION, LLC, priority 2011, published 2014) are described below.

For test [1], the system named is 4EBP1. Description: 4EBP1 phosphorylation in HSV-1-infected MEFs (Western blot). It counts as cell-based, mouse. The following applies: 8 hpi, 3 PFU/cell. How it is done: FIG. 8. Rapamycin-resistant mTOR activity is required for lytic replication by representative alpha- and gamma-herpesviruses. (A) Confluent serum-starved MEFs were infected at a multiplicity of 0.05 PFU/cell with HSV-1 or γHV68. The amount of virus in cell-free supernatants was determined by the TCID50 method at 72 hpi for HSV-1 (left) and at 6 days post infection for γHV68 (right). Black bars represent vehicle-treated samples (N) (DMSO), gray bars represent rapamycin-treated samples (R) (20 nM), and white bars represent Torin1-treated samples (T) (250 nM). The error bars represent the standard errors of the means from at least two independent experiments. (B) Confluent MEF monolayers were infected with HSV-1 at a multiplicity of 3 PFU/cell. Infected cell lysates were harvested at 8 hpi, and equal amounts of protein were analyzed by Western blotting. (C) WT or 4EBP1-null MEFs were infected with HSV-1 at a multiplicity of 0.05 PFU/cell. The amount of cell-free virus present in the supernatant at 72 hpi was quantified by the TCID50 method. The error bars represent the standard errors of the means from two independent experiments.
In general terms: A western blot detects proteins with antibodies after separation by electrophoresis.

The subject of test [2] is HCMV DNA. In words: HCMV viral DNA in infected fibroblasts by qPCR. It counts as cell-based, human cytomegalovirus. How it is done:
FIG. 2. […] Serum-starved confluent fibroblasts were infected with HCMV at a multiplicity of 3 PFU/cell. […] Control cultures received the vehicle in which Torin1 was dissolved (NT). At 2 hpi cells were harvested, and cell-associated viral DNA was quantified by real-time PCR analysis. Error bars represent the standard errors of the means from two independent experiments performed in duplicate. […] The level of IE1 was determined at 6 hpi by a Western blot assay using an IE1-specific monoclonal antibody. The image is representative of two independent experiments. […] The expression of a GFP marker gene present in the viral genome was monitored at 24 h after infection in the presence or absence of drug.
FIG. 3. […] Cells were harvested at the indicated times, and the accumulation of the indicated proteins was analyzed by Western blotting. […] At the indicated times DNA was isolated, and viral DNA was quantified by qPCR. Equivalent amounts of DNA were analyzed for each sample, and the results are normalized to the level of actin DNA per sample. […] At the indicated times the amount of UL99 RNA was determined by qPCR, and the results are normalized to the amount of actin RNA in each sample. […]
Briefly, primary human fibroblasts were infected with BADinGFP at a multiplicity of 0.05 PFU/cell. […] For each sample, DNA was quantified by using a NanoDrop spectrophotometer (Thermo Scientific). […]
For orientation: Quantitative PCR measures a nucleic acid by following its amplification.

The subject of test [3] is eIF4F complex and 4EBP1. Description: m7GTP-Sepharose cap-analog binding (eIF4F complex) in HCMV-infected fibroblasts. It counts as cell-based, human. The following applies: rapamycin 20 nM, Torin1 250 nM. Here is the method: FIG. 4. Rapamycin-resistant mTOR activity is required for 4EBP1 phosphorylation and eIF4F complex integrity during HCMV infection. Serum-starved confluent human fibroblasts were infected with HCMV at a multiplicity of 3 PFU/cell. […] (A) At 48 hpi the phosphorylation status of mTORC1 targets was assessed by Western blot assay by using antibodies to phosphorylated targets (4EBP1-PT^37/46 and rpS6-PS^235/6) and total proteins. Tubulin was assayed as a loading control. (B) Same as above (A) except that cells were harvested at the indicated times. (C and D) After mock infection (M) or infection with HCMV (WT) at a multiplicity of 3 PFU/cell, cultures were harvested at the indicated times. Equivalent amounts of protein from each sample were incubated with m^7GTP-Sepharose, and the isolated protein complexes were analyzed by Western blotting using the indicated antibodies to the eIF4F complex and 4EBP1. In all cases the results are representative of at least two independent experiments. lys, lysate.
The phosphorylation status of 4EBP1 regulates cap-dependent protein translation. Hypophosphorylated 4EBP1 binds to eIF4E and inhibits the formation of the eIF4F complex, while the phosphorylation of 4EBP1 inhibits its interaction with eIF4E. […]

Test [4] concerns mTORC1 targets (4EBP1, rpS6). In words: Phosphorylation of mTORC1 targets in MCMV-infected MEFs (Western blot). It counts as cell-based, mouse. The following applies: Torin1 250 nM; for 4EBP1 phosphorylation: MCMV.
[5] abbreviates: 48 hpi, rapamycin 20 nM, LY294002 20 μM.

As for `CCC(=O)N1CCN(c2ccc(-n3c(=O)ccc4cnc5ccc(-c6cnc7ccccc7c6)cc5c43)cc2C(F)(F)F)CC1` [Torin1], the “phosphorylation of 4EBP1 during HSV-1 infection” value in test [1] was “inhibited”. Also, the “level of cell-associated viral DNA” value in test [2] (2 hpi, 250 nM, pretreated 24 h or after adsorption, 3 PFU/cell) is “not influenced”. Also, in test [2] (96 hpi, Torin1 250 nM, 0.05 PFU/cell), the “reduction of viral DNA accumulation” value came out at 150 fold. Moreover, in test [3], the “association of 4EBP1 with m7GTP-Sepharose cap analog” value is given as “substantially increased association”; the “association of eIF4G and eIF4A with the cap analog” value is given as “reduced association”. In test [4] (setting [5]), the “phosphorylation of 4EBP1 in MCMV-infected MEFs” value is “inhibited” and the “phosphorylation of rpS6 in MCMV-infected MEFs” value is “completely inhibited”. Also, the 4EBP1 phosphorylation entry in test [4] (Akt1/Akt2-null MEFs) is “inhibited”. Besides, the 4EBP1 phosphorylation result in test [4] (Rictor-null MEFs) is on record as “effectively inhibited”.
